This experiment has as its system KRAS^G12C NSCLC cell lines (H358, H2122). The experiment in a line: Long-term clonogenic growth, acquired MAPKi resistance in NSCLC cell lines. To be noted: combined with MAPKi; FIG. 6G to 6J. Type of experiment: cell-based, human. From the text:
FIGS. 6A-6J. DNA-PKi co-treatment prevents acquired MAPKi-resistance in KRAS^G12 human pancreatic ductal adenocarcinoma and non-small cell lung carcinoma cell lines. FIGS. 6A to 6J: Long-term clonogenic growth of PDAC (MIAPaCa-2, XWR200) (6A to 6F) or NSCLC (H358, H2122) (6G to 6J) cell lines showing acquired-resistant colonies to MEKi alone, type II RAFi+MEKi, or KRAS G12Ci+MEKi and their suppression by indicated co-treatments with DNA-PKi (NU7026) and/or PARPi (ABT888) at indicated concentrations. Top, representative cultures; bottom, quantifications over n=4 fields (mean±SD). Data representative of 2 independent repeats. Seeding densities (cells/well in 6-well dishes) and culture durations: MIAPaCa-2 (10,000; 30 days for 6A-6C), XWR200 (150,000; 23 days for 6D, 30 days for 6E, 26 days for 6F), H358 (40,000; 14 days for 6G, 29 days for 6H, 26 days for 6I), H2122 (20,000, 22 days for 6J). […]
For clonogenic assay, cells were plated at indicated cell densities in six-well plates and treated with inhibitor(s) the next day. […] Formazan was then dissolved in 100 μL DMSO, and the absorbance values were measured using an ELISA reader (SpectraMax Plus 384) at the wavelength of 570 nm, blanked with DMSO solution. […]

As to `C[C@]1(c2nc3c(C(N)=O)cccc3[nH]2)CCCN1` [ABT888, veliparib], the “suppression of acquired MAPKi resistance, number of NSCLC cell lines” value is “generally ineffective”.
The same measure for `O=c1cc(N2CCOCC2)oc2c1ccc1ccccc12` [NU7026]: “one of two”.

The values above are taken from patent US20260240842A1, “METHODS TO PREVENT THERAPY RESISTANCE IN MELANOMA VIA BLOCKING GENOMIC INSTABILITY” (THE REGENTS OF THE UNIVERSITY OF CALIFORNIA, priority 2022, published 2026).
